This note sets out measurements from patent US20090156545A1, “Substituted Phosphate Esters of Nucleoside Phosphonates” (priority 2005, published 2009).

Common to all, as to assay type: cell-based
One test concerns HIV-1Lai. In words: HIV-1Lai p24 reduction assay in MT-2 cells.
The subject of another test is HCMV AD169. In words: HCMV AD169 plaque reduction assay in HFF cells. A general note: In a plaque reduction assay, fewer plaques than in the control indicate reduced infectivity or spread.
Test [1] has as its system HSV-1. In words: HSV-1 plaque reduction assay.
In a further test the test system is Cowpox Brighton. Nature of the test: organism not typed. The note with it: read-out: Cowpox, 50% effective concentration, EC50.
Test [2] relates to HSV-1. Nature of the test: HSV-1 DNA reduction assay in MRC-5 cells.
In the next test the test system is MCMV. Nature of the test: MCMV plaque reduction assay in HFF cells. The note with it: read-out: MCMV, 50% effective concentration, EC50.
A further test concerns Vaccinia WR. In words: microbe, parasite or virus in culture. Conditions: read-out: Vaccinia, 50% effective concentration, EC50.
In the next test the test system is HSV-2. Nature of the test: HSV-2 plaque reduction assay.
[3] abbreviates: read-out: HCMV, 50% effective concentration, EC50.
Where [4] appears, read: read-out: HSV-1, 50% effective concentration, EC50.

Read-outs that look alike come from different tables or passages of the source.

`Nc1ncnc2c1ncn2CCOCP(=O)(O)O` [ADV, phosphonomethoxyethyadenine, reference compound]: in the test with HIV-1Lai (Human immunodeficiency virus 1, MT2, read-out: HIV-1, 50% effective concentration, EC50), the EC50 came out at 1300 nM.

For `Nc1ccn(C[C@@H](CO)OCP(=O)(O)O)c(=O)n1` [HPMPC, (S)-9-[3-hydroxy-2-(phosphonomethoxy)-propyl]cytosine, reference compound], the EC50 in the test with HCMV AD169 (Human betaherpesvirus 5, read-out: HCMV, 50% effective concentration, EC50) stood at 1200 nM; with HSV-1 [1] (Human alphaherpesvirus 1, read-out: HSV-1, 50% effective concentration, EC50) it was 15000 nM; in the test with Cowpox Brighton (HFF), 42000 nM; in the test on HSV-1 [2] (Human alphaherpesvirus 1, MRC5, read-out: HSV-1, 50% effective concentration, EC50) it was 3300 nM; with MCMV it was 40 nM; in the test with Vaccinia WR (Orthopoxvirus vaccinia, HFF), 31000 nM. The EC50 in the test with HSV-2 (Human alphaherpesvirus 2, read-out: HSV-2, 50% effective concentration, EC50) amounted to 10500 nM.

For the molecule `CCCCCCCCCCCCCCCCCCOCCOP(=O)(O)OP(=O)(O)CO[C@H](CO)Cn1ccc(N)nc1=O` [ODE-phospho-HPMPC], the EC50 in the test on HCMV AD169 (setting [3]) is 4 nM; in the test on Cowpox Brighton, 540 nM; in the test with HSV-1 [2] (setting [4]), 0.02 nM; in the test with MCMV, 30 nM; in the test on Vaccinia WR, 320 nM.

As to “(1-(4-aminooxopyrimidin-1(2H)-yl)-3-hydroxypropan-2-yloxy)methylphosphonic(3-hexadecyloxy)propylphosphoric) anhydride [HDP-phospho-HPMPC]”, the EC50 turned out to be 100 nM with HCMV AD169 (setting [3]); 130 nM in the test with HSV-1 [1] (setting [4]); 3900 nM in the test on Cowpox Brighton; 60 nM in the test with HSV-1 [2] (setting [4]); 350 nM in the test with MCMV; 2800 nM in the test on Vaccinia WR. Besides, in the test with HSV-2 (read-out: HSV-2, 50% effective concentration, EC50), the EC50 was 300 nM.

For the molecule “(2-(6amino-9H-purin-9-yl)ethoxy)methylphosphonic(3-hexadecyloxy)propylphosphonic)anhydride [HDP-phospho-ADV]”, the EC50 with HIV-1Lai (read-out: HIV-1, 50% effective concentration, EC50) is 9 nM.
